Experimental data reported in ChEMBL document CHEMBL1201862, “PubChem BioAssay data set” (2004).
Activity calls are given as the source filed them. Rule as the data show it, for most assays here: actives have a measured EC50 and inactives only a lower limit.

Legend:
BJ [1] = test: cytotoxicity toward BJ-TERT fibroblasts, dose response, cell-based, RAS-independent, luminescence (AID 1933); assay type: functional; settings: Homo sapiens
BJ [2] = test: cells; assay type: functional, cell-based; settings: Homo sapiens
BJ [3] = test: cytotoxicity toward BJ-TERT-LT-ST fibroblasts, dose response, cell-based, RAS-independent, luminescence (AID 1935); assay type: functional; settings: Homo sapiens;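 also: BJ fibroblasts immortalized with TERT plus LT and ST oncogenes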
[4] = cytotoxicity toward DRD oncogenic fibroblasts, dose response, cell-based, non-viral oncogenic, luminescence (AID 1934); assay type: functional; settings: Homo sapiens
[5] = biological target: T1, Short transient receptor potential channel 4 (Mus musculus, UniProt Q9QUQ5); test: mouse TRPC4 channel inhibitors, dose response, cell-based, HEK293 TRPC4/mu-opioid, Fluo-4 calcium (AID 434942); assay type: functional;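 also: potency of inhibitors blocking the TRPC4 calcium response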
T1 sequence (Q9QUQ5 whole entry): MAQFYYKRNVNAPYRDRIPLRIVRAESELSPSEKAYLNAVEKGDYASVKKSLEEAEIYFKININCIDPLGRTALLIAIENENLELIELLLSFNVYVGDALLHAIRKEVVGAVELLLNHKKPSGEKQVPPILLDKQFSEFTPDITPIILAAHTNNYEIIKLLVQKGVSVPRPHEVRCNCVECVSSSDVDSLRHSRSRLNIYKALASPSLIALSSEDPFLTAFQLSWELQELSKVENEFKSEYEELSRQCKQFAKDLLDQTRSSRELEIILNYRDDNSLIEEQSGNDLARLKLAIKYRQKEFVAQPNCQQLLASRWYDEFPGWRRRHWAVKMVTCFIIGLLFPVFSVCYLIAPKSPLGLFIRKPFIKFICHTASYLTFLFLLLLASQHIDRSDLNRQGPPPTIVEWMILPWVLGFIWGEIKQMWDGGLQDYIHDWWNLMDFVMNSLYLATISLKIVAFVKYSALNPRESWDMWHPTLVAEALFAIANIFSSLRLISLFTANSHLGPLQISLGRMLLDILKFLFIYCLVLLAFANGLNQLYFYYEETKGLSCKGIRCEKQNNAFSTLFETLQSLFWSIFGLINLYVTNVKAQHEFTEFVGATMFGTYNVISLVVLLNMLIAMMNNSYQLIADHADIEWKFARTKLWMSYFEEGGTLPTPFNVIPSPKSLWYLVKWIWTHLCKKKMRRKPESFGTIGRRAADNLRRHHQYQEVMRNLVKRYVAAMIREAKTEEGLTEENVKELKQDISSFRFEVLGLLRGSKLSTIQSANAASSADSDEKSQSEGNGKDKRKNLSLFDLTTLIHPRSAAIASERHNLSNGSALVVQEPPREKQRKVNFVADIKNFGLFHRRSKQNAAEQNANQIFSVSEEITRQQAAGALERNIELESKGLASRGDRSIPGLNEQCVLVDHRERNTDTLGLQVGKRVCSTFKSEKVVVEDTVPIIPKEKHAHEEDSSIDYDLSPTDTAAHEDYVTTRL

BJ [6] = test: cytotoxicity toward Ras-transformed BJeLR fibroblasts, dose response, cell-based, alamar blue fluorescence, cherrypicked samples (AID 2631); assay type: functional; settings: Homo sapiens;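 also: confirmatory dose-response assay in RAS-dependent BJ fibroblasts engineered with TERT, LT and ST, with cytotoxicity read by fluorescence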
HEK293 [7] = test: cytotoxicity in HEK293T NF-kB-Luc cells, SAR follow-up, cytotoxicity control for NF-kB activator project, cell-based, resazurin fluorescence (AID 493251); assay type: functional; settings: Homo sapiens
Jurkat = test: SAR Analysis of small molecule inhibitors of T-cell specific antigen receptor-induced NF-kB activation in a Jurkat cell line using a luminescence assay - Set 2. [Related pubchem assays (depositor defined):AID435003, AID435012, AID465]; assay type: functional, cell-based; settings: Homo sapiens
HEK293 [8] = test: SAR Analysis of small molecule inhibitors of T-cell specific antigen receptor-induced NF-kB activation in a HEK-293T cell line using a luminescence assay - Set 2. [Related pubchem assays (depositor defined):AID435003, AID435012, AID489026]; assay type: functional, cell-based; settings: Homo sapiens

| Compound | EC50 (BJ [1]) | EC50 (BJ [2]) | EC50 (BJ [3]) | EC50 [4] | EC50 [5] | EC50 (BJ [6]) | IC50 (HEK293 [7]) | IC50 (Jurkat) | IC50 (HEK293 [8]) |
| --- | --- | --- | --- | --- | --- | --- | --- | --- | --- |
| COC(=O)c1cccc(Nc2c3c(nc4ccccc24)CCC3)c1 | 28.4 µM (active) | 18.2 µM (active) | > 150 µM (inconclusive) | 19.2 µM (active) | 2.11 µM (active) | > 133 µM (inactive) |  |  |  |
| Cc1ccc(C)c(NC(=O)c2ccc([N+](=O)[O-])o2)c1 |  |  |  |  |  |  | > 80 µM (inactive) | 14.1 µM (active) | 46.6 µM (inactive) |
